Results on 35 compounds are retold here after publication PMC2858063 (Steroids, 2010).

The target of experiment [1] is T1, hu-mPRα (Homo sapiens, UniProt Q86WK9).
T1 sequence (Q86WK9 1-346): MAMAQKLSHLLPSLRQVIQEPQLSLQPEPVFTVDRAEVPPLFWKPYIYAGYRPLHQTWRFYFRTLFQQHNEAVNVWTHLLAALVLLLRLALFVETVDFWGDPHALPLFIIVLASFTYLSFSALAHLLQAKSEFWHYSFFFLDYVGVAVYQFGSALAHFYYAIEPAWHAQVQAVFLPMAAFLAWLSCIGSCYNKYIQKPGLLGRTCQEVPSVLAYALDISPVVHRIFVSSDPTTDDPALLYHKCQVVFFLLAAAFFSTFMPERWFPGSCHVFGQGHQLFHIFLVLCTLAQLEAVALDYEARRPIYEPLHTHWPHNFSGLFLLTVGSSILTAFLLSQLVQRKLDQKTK
The settings on record: cited from earlier work; for binding affinity for nPR compared with mPRα: selectivity in words.

Experiment [2] concerns the target T2, human nPR (Homo sapiens, UniProt P06401).
T2 sequence (P06401 679-933 limits assumed): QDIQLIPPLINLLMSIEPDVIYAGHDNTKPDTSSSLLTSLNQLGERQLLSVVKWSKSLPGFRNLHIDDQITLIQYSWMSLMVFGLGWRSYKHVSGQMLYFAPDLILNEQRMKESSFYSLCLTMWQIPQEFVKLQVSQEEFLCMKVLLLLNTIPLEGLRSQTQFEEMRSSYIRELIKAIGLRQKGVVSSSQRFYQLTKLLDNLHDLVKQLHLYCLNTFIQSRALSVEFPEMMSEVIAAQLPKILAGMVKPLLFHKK
Conditions: cited from earlier work; for pIC50 (mean): 50% displacement of [3H] Org 2058, extracted from log RBA; for logRBA: RBA (%) compared with that of Org 2058 (=100%).

Experiment [3] concerns the target T1, hu-mPRα. Nature of the experiment: hu-mPRα steroid binding assay. The settings on record: for RBA (Relative Binding Affinity): compared with progesterone (=100), human mPRα; for binding to hu-mPRα (in words): this study, Fig. 1, Table 1.

“Also recorded” adds a separate entry of the source. Like-named read-outs stand apart in the source and are kept apart here.

For `CC#C[C@]1(O)CC[C@H]2[C@@H]3CCC4=CC(=O)CCC4=C3[C@@H](c3ccc(N(C)C)cc3)C[C@@]21C` [Mifepristone], the “binding to hu-mPRα (in words)” value in experiment [1] (earlier series, listed as RU486) is listed as “little or no affinity; also recorded: does not bind”.
Turning to `C#C[C@]1(O)CC[C@H]2[C@@H]3CCC4=CCCC[C@@H]4[C@H]3CC[C@@]21C` [Lynestrenol], in experiment [2], the “pIC50 (mean)” value is 6.95 and the logRBA is listed as 0.23.
Turning to 3,20-dioxopregn-4-ene-18-carbonitrile, in experiment [3], the “RBA (Relative Binding Affinity)” value is on record as 1.8% and the “binding to hu-mPRα (in words)” value is listed as “low binding affinities”.
As to `C[C@]12CCC(=O)C=C1CC[C@@H]1[C@@H]2CC[C@@]2(C)[C@H]1CC[C@]2(O)C(=O)CO` [Cortexolone (11-deoxycortisol), 11-deoxycortisol], in experiment [3], the IC50 turned out to be 4850 nM, the “RBA (Relative Binding Affinity)” value is listed as 1.8% and the “binding to hu-mPRα (in words)” value is recorded as “less potent than deoxycorticosterone”.
Turning to `CC(C)[C@@H]1C[C@H]2[C@@H]3CCC4=CC(=O)CC[C@@H]4[C@H]3CC[C@]2(C)[C@H]1O` [17β-Hydroxy-16α-isopropylestr-4-en-3-one], in experiment [2], the “pIC50 (mean)” value is on record as 7.72 and the logRBA was 1.00.
For `C[C@]12CC[C@H]3[C@@H](CCC4=CC(=O)CC[C@@]43C)[C@@H]1CC[C@@H]2O` [Testosterone], the “RBA for hu-mPRα” value in experiment [1] (progesterone = 100 %, earlier series) is on record as 22.4%. Also, in experiment [2], the “pIC50 (mean)” value was 6.02 and the logRBA is given as −0.70.
As for `C[C@]12CC[C@@H]3c4ccc(O)cc4CC[C@H]3[C@@H]1CC[C@@H]2O` [Estradiol-17β], the “binding to hu-mPRα (in words)” value in experiment [3] was “no binding affinity”.
Regarding `C#C[C@]1(O)CC[C@H]2[C@@H]3CCC4=CC(=O)CC[C@@H]4[C@H]3CC[C@@]21C` [norethisterone], the “binding affinity for nPR compared with mPRα” value in experiment [1] is “greater binding affinity for nPR than mPRα”.
As for `C#CC1(O)CC[C@H]2[C@@H]3CCC4=CC(=O)CC[C@@H]4[C@H]3CC[C@@]21CC` (mixture of isomers) [norgestrel], the “binding affinity for nPR compared with mPRα” value in experiment [1] is reported as “greater binding affinity for nPR than mPRα”.
Take `CC(=O)[C@H]1CC[C@H]2[C@@H]3CC[C@H]4C[C@H](O)CC[C@]4(C)[C@H]3CC[C@]12C` [3α-Hydroxy-5α-pregnan-20-one]: in experiment [3], the IC50 amounted to 1150 nM and the “RBA (Relative Binding Affinity)” value is given as 7.6%.
As for `CC(=O)[C@H]1CC[C@H]2[C@@H]3CCC4=CC(=O)C=C[C@]4(C)[C@H]3CC[C@]12C` [Pregna-1,4-diene-3,20-dione], in experiment [3], the IC50 is 93.5 nM, the “RBA (Relative Binding Affinity)” value was 93.5% and the “binding to hu-mPRα (in words)” value is on record as “little or no influence relative to the progesterone response”.
Consider `CC[C@]1(O)CC[C@H]2[C@@H]3CCC4=CC(=O)CC[C@@H]4[C@H]3CC[C@@]21C` [17-Hydroxy-19-nor-17α-pregn-4-en-3-one], for which, in experiment [2], the “pIC50 (mean)” value is 8.24 and the logRBA is 1.52.
`C[C@]12CCC(=O)C=C1CC[C@@H]1[C@@H]2CC[C@]2(C)C(=O)CC[C@@H]12` [Androst-4-ene-3,17-dione]: the “binding to hu-mPRα (in words)” value in experiment [3] is “unable to bind”. Also, in experiment [2], the “pIC50 (mean)” value is recorded as 6.02 and the logRBA is reported as −0.70.
As to `C[C@]12CCC(=O)C=C1CC[C@@H]1[C@@H]2[C@@H](O)C[C@@]2(C)[C@H]1CC[C@]2(O)C(=O)CO` [Cortisol (hydrocortisone), Cortisol], in experiment [3], the “binding to hu-mPRα (in words)” value is recorded as “complete loss of affinity”.
Take `CC(=O)[C@H]1CC[C@H]2[C@@H]3CCC4=CC(=O)CC[C@@H]4[C@H]3CC[C@]12C` [19-Norprogesterone]: the “binding affinity for nPR compared with mPRα” value in experiment [1] is on record as “greater binding affinity for nPR than mPRα”. Moreover, in experiment [2], the “pIC50 (mean)” value was 8.53 and the logRBA is 1.81.
For the compound `CC(=O)[C@H]1CC[C@H]2[C@@H]3CCC4=CC(=O)CC[C@]4(C)[C@H]3[C@@H](O)C[C@]12C` [11β-hydroxyprogesterone], in experiment [1] (mPRα, observed earlier), the “lower binding affinity relative to progesterone” value is 10 fold.
For the compound `CC[C@]1(O)CC[C@H]2[C@@H]3CCC4=CCCC[C@@H]4[C@H]3CC[C@@]21C` [Ethylestrenol], in experiment [2], the “pIC50 (mean)” value is given as 7.21 and the logRBA is listed as 0.49.
As to `C[C@]12CC[C@H]3[C@@H](CCC4=CC(=O)CC[C@@]43C)[C@@H]1CC[C@H]2O` [17-Epitestosterone], the “RBA (Relative Binding Affinity)” value in experiment [3] amounted to 2.8%.
As to `C=CC[C@]1(O)CC[C@H]2[C@@H]3CCC4=CCCC[C@@H]4[C@H]3CC[C@@]21C` [Allylestrenol], in experiment [2], the “pIC50 (mean)” value is reported as 7.04 and the logRBA is recorded as 0.32.
As to `CCCCCC(=O)O[C@]1(C(C)=O)CC[C@H]2[C@@H]3CCC4=CC(=O)CC[C@]4(C)[C@H]3CC[C@@]21C` [17-Caproylprogesterone], in experiment [3], the “RBA (Relative Binding Affinity)” value was 4.4%.
For `CCC(=O)[C@@]1(C)CC[C@H]2[C@@H]3CCC4=CC(=O)CCC4=C3CC[C@@]21C` [Promegestone], the “binding to hu-mPRα (in words)” value in experiment [1] (earlier series, listed as R5020) is “little or no affinity; also recorded: poor binding affinities”. In experiment [2], the “pIC50 (mean)” value is 8.90 and the logRBA is listed as 2.18.
In the case of `C[C@]12CC[C@H]3[C@@H](CCC4=CC(=O)CC[C@@H]43)[C@@H]1CC[C@@H]2O` [Nandrolone, 19-nortestosterone], in experiment [2], the “pIC50 (mean)” value is given as 7.20 and the logRBA is given as 0.48.
On to `C#C[C@]1(O)CC[C@H]2[C@@H]3CCC4=CC(=O)CC[C@]4(C)[C@H]3CC[C@@]21C` [Ethisterone], for which, in experiment [1], the “binding affinity for nPR compared with mPRα” value is reported as “greater binding affinity for nPR than mPRα”.
For `CC(=O)[C@H]1CC[C@H]2[C@@H]3CC[C@H]4C[C@@H](O)CC[C@]4(C)[C@H]3CC[C@]12C` [3β-Hydroxy-5α-pregnan-20-one], the “binding to hu-mPRα (in words)” value in experiment [3] is given as “absence of binding”.
On to `CC(=O)[C@H]1CC[C@H]2[C@@H]3CCC4=CC(=O)CC[C@]4(C)[C@H]3CC[C@]12C` [Progesterone], for which the IC50 in experiment [3] amounted to 87.4 nM.
`C[C@]12CC[C@H]3[C@@H](CC[C@H]4CC(=O)CC[C@@H]43)[C@@H]1CC[C@@H]2O` [5α-Dihydronandrolone]: in experiment [2], the “pIC50 (mean)” value was 6.50 and the logRBA was −0.22.
On to `C[C@@H]1C=C2CC(=O)CC[C@]2(C)[C@H]2CC[C@]3(C)[C@@H](O)CC[C@H]3[C@H]12` [17β-Hydroxy-7α-methylandrost-5-en-3-one], for which, in experiment [3], the IC50 was found to be 2880 nM and the “RBA (Relative Binding Affinity)” value is 3.0%. Besides, the “decrease in binding relative to testosterone” value in experiment [3] (mPRα, compared with testosterone of ref 10) is 10 fold.
In the case of `CC(=O)S[C@@H]1CC2=CC(=O)CC[C@]2(C)[C@H]2CC[C@]3(C)[C@@H](C(C)=O)CC[C@H]3[C@H]12` [7α-Acetylthioprogesterone (Org 33718-0), 7α-Acetylthioprogesterone], the “RBA (Relative Binding Affinity)” value in experiment [3] is given as under 1%.
Turning to `CC(=O)[C@H]1CC[C@H]2[C@@H]3CCC4=CC(=O)[C@H](C#N)C[C@]4(C)[C@H]3CC[C@]12C` [3,20-Dioxopregn-4-ene-2α-carbonitrile], in experiment [3], the “RBA (Relative Binding Affinity)” value is given as under 1% and the “binding to hu-mPRα (in words)” value is listed as “inactivity”.
Regarding `CC(=O)[C@H]1CC[C@H]2[C@@H]3C=CC4=CC(=O)CC[C@]4(C)[C@H]3CC[C@]12C` [Pregna-4,6-diene-3,20-dione], in experiment [3], the IC50 was found to be 88.4 nM, the “RBA (Relative Binding Affinity)” value came out at 98.9% and the “binding to hu-mPRα (in words)” value was “little or no influence relative to the progesterone response”.
With `CC(=O)[C@H]1CC[C@H]2[C@@H]3CCC4=CC(=O)CC[C@]4(CO)[C@H]3CC[C@]12C` [19-Hydroxyprogesterone], in experiment [3], the “RBA (Relative Binding Affinity)” value is 0.7% and the “binding to hu-mPRα (in words)” value is given as “low binding affinities”.
In the case of `CC(=O)[C@H]1CC[C@H]2[C@@H]3CCC4=CC(=O)[C@H](O)C[C@]4(C)[C@H]3CC[C@]12C` [2α-hydroxyprogesterone], in experiment [1] (earlier series), the “binding to hu-mPRα (in words)” value is listed as “poor binding”.
For `C[C@]1(O)CC[C@H]2[C@@H]3CCC4=CC(=O)CC[C@@H]4[C@H]3CC[C@@]21C` [17β-Hydroxy-17α-methylestr-4-en-3-one], in experiment [2], the “pIC50 (mean)” value is reported as 7.66 and the logRBA is on record as 0.94.
For the compound `C[C@]12CCC(=O)C[C@@H]1CC[C@@H]1[C@@H]2CC[C@]2(C)[C@@H](O)CC[C@@H]12` [5α-Dihydrotestosterone (DHT), 5α-Dihydrotestosterone], in experiment [2], the “pIC50 (mean)” value was 6.16 and the logRBA is on record as −0.56.
Turning to `CCC1CC2C3CCC4=CC(=O)CCC4C3CCC2(C)C1C(=O)CO` (stereo not drawn) [16α-ethyl-21-hydroxy-19-norpregn-4-ene-3,20-dione], the “binding to hu-mPRα (in words)” value in experiment [1] (earlier series) is “poor binding affinities”. Besides, the “binding affinity for nPR compared with mPRα” value in experiment [1] is “greater binding affinity for nPR than mPRα”. Besides, the logRBA in experiment [2] is on record as 2.00.
